Literature values as cited in patent publication US20060030547A1, “Antineoplastic combinations” (Wyeth, priority 2001, published 2006).

Experiments:
orthotopic glioma = conditions: nude mice, background statement
[1] = system: human glioblastoma cell line; conditions: in vitro, background statement
[2] = system: histologically diverse tumor cells; conditions: in vitro, background statement

## CO[C@H]1C[C@@H]2CC[C@@H](C)[C@@](O)(O2)C(=O)C(=O)N2CCCC[C@H]2C(=O)O[C@H]([C@H](C)C[C@@H]2CC[C@@H](OC(=O)C(C)(CO)CO)[C@H](OC)C2)CC(=O)[C@H](C)/C=C(\C)[C@@H](O)[C@@H](OC)C(=O)[C@H](C)C[C@H](C)/C=C/C=C/C=C/1C [CCI-779, Rapamycin 42-ester with 3-hydroxy-2-(hydroxymethyl)-2-methylpropionic acid]
Orthotopic glioma
  activity in orthotopic glioma model: active
[1]
  suppression of growth factor (platelet-derived)-induced stimulation: markedly suppressed
[2]
  cell cycle effect: arrested cells in the G1 phase of the cell cycle
